“And” between values parts separate entries of the source, which are not always exact repeats. Equal values may be shown once.
Legend:
serum uric acid (sUA) [1] = test: Example 2 clinical trial: arhalofenate 400 mg increasing to 600 mg in combination with febuxostat 80 mg in gout patients with hyperuricemia, serum uric acid; type: in vivo, human; conditions: Day 8, after 1 week febuxostat 80 mg daily
Protocol: This study evaluated the efficacy, safety and tolerability of arhalofenate at 400 mg increasing to 600 mg daily orally in combination with febuxostat 80 mg daily orally in gout patients (per criteria of the American Rheumatism Association) with hyperuricemia.
In addition to colchicine 0.6 mg daily for flare prophylaxis, all patients received febuxostat and arhalofenate in the following order during the Treatment Phase: • Days 1 through 7: febuxostat 80 mg orally once daily (febuxostat only period) • Days 8 through 21: febuxostat 80 mg plus arhalofenate 400 mg orally once daily (febuxostat plus arhalofenate 400 mg period) • Days 22 through 35: febuxostat 80 mg plus arhalofenate 600 mg orally once daily (febuxostat plus arhalofenate 600 mg period)
The sUA levels were assessed before the start of each dosing period (Day 1, Day 8, Day 22) and at the end of the Treatment Phase (Day 36). Serum urate levels were also measured on the last day of each dosing period (Day 7, Day 21, and Day 35) at 4 different time points; pre-dose (fasting), 2 hours post-dose, 6 hours post-dose, and 10 hours post-dose.
Dose/Route/Regimen • Colchicine: 0.6 mg/oral/daily from Day −16 through Day 49 • Febuxostat: 80 mg/oral/daily from Day 1 through Day 35 • Arhalofenate: 400 mg/oral daily from Day 8 through Day 21; 600 mg/oral/daily from Day 22 through Day 35
Duration of Treatment • Phase 1: Screening Phase: 1 to 4 weeks • Phase 2: Run-in/Stabilization Phase: ≥2 weeks • Phase 3: Treatment Phase: 5 weeks • Phase 4: Follow-up Phase: 2 weeks

serum uric acid = conditions: monotherapy at 40, 80, 120, 160 and 240 mg/day; cited from earlier work
serum uric acid (sUA) [2] = tested on: serum uric acid (sUA)
Protocol: A randomized, double-blind, placebo-controlled study to evaluate the safety and efficacy of daily oral doses of between 400 to 600 mg of arhalofenate (i.e., (−)-halofenate) in combination with 300 mg oral doses of allopurinol was conducted in gout patients with inadequate hypouricemic (uric acid lowering) response to allopurinol alone.
Patients who met the final eligibility criteria were randomized to each of 3 study arms in the following manner (1:1:1):
Arhalofenate 400 mg (plus allopurinol 300 mg)
Arhalofenate 600 mg (plus allopurinol 300 mg)
Placebo (plus allopurinol 300 mg)
The serum uric acid (sUA) levels were assessed at Day 1, prior to giving blinded study medication, and at Visits Week 2, 3, and 4.
Patients in all treatment groups also took allopurinol 300 mg once daily orally starting at Week −3 during the run-in and continuing through Week 4.
The randomized treatment regimens were as follows (Day 1 through Week 4):
Treatment Group #1: Arhalofenate 400 mg (plus allopurinol)
Treatment Group #2: Arhalofenate 600 mg (plus allopurinol)
Treatment Group #3: Placebo (plus allopurinol)
The effects of each of the three treatment groups were assessed as the change in sUA from baseline to the end of the treatment period for the following endpoints:
Percent change in sUA from baseline at Week 4 of treatment
The proportion of patients achieving a sUA<6 mg/dL at week 4 of treatment
The proportion of patients achieving a sUA<5 mg/dL at week 4 of treatment
The proportion of patients achieving a sUA<4 mg/dL at week 4 of treatment

[3] = placebo + allopurinol 300 mg once daily oral, Week 4 (LOCF), N = 31
[4] = placebo + allopurinol 300 mg once daily oral, Week 4, N = 31
[5] = placebo + allopurinol 300 mg, Week 4

Compound: Cc1nc(-c2ccc(OCC(C)C)c(C#N)c2)sc1C(=O)O [febuxostat, 2-(3-cyano-4-isobutoxyphenyl)-4-methyl-1,3-thiazole-5-carboxylic acid]
- mean absolute reduction in sUA from Day 1 (serum uric acid (sUA) [1]): -4.3 mg/dL
- mean percent reduction in sUA from Day 1 (serum uric acid (sUA) [1]): −47.8%
- Patients reached target: No, sUA < 3.0 mg/dL (serum uric acid (sUA) [1]; 11 patients): 11 patients
- Patients reached target: No, sUA < 4.0 mg/dL (serum uric acid (sUA) [1]; 11 patients): 10 patients
- Patients reached target: No, sUA < 5.0 mg/dL (serum uric acid (sUA) [1]; 11 patients): 5 patients
- Patients reached target: No, sUA < 6.0 mg/dL (serum uric acid (sUA) [1]; 11 patients): 0 patients
- Patients reached target: Yes, sUA < 3.0 mg/dL (serum uric acid (sUA) [1]; 11 patients): 0 patients
- Patients reached target: Yes, sUA < 4.0 mg/dL (serum uric acid (sUA) [1]; 11 patients): 1 patients
- Patients reached target: Yes, sUA < 5.0 mg/dL (serum uric acid (sUA) [1]; 11 patients): 6 patients
- Patients reached target: Yes, sUA < 6.0 mg/dL (serum uric acid (sUA) [1]; 11 patients): 11 patients
- Proportion of patients reached target, sUA < 3.0 mg/dL (serum uric acid (sUA) [1]; 11 patients): 0.00%
- Proportion of patients reached target, sUA < 4.0 mg/dL (serum uric acid (sUA) [1]; 11 patients): 9% and 9.09%
- Proportion of patients reached target, sUA < 5.0 mg/dL (serum uric acid (sUA) [1]; 11 patients): 55% and 54.55%
- Proportion of patients reached target, sUA < 6.0 mg/dL (serum uric acid (sUA) [1]; 11 patients): 100%

Compound: O=c1[nH]cnc2c(CN3C[C@H](CO)[C@@H](O)C3)c[nH]c12 [Ulodesine, 7-(((3R,4R)-3-hydroxy-4-(hydroxymethyl)pyrrolidin-1-yl)methyl)-3H-pyrrolo[3,2-d]pyrimidin-4(5H)-one]
- effect on serum uric acid in gout patients (serum uric acid): rapidly and significantly reduced serum uric acid

Compound: O=c1[nH]cnc2[nH]ncc12 [Placebo + Allopurinol, 1,5-dihydro-4H-pyrazolo [3,4-d]pyrimidin-4-one]
- % Change from Baseline in Uric Acid, Mean (serum uric acid (sUA) [2]; [3]): −9.5%
- % Change from Baseline in Uric Acid, Median (serum uric acid (sUA) [2]; [3]): −8.7%
- Uric Acid at End of Treatment (LOCF), Mean (serum uric acid (sUA) [2]; [4]): 6.3 mg/dL
- Uric Acid at End of Treatment (LOCF), Median (serum uric acid (sUA) [2]; [4]): 6.2 mg/dL
- patients with sUA<4.0 mg/dL by End of Treatment (serum uric acid (sUA) [2]; [5]): 1 patients
- patients with sUA<5.0 mg/dL by End of Treatment (serum uric acid (sUA) [2]; [5]): 4 patients
- patients with sUA<6.0 mg/dL by End of Treatment (serum uric acid (sUA) [2]; [5]): 11 patients
